Measurements from PubChem BioAssay (NCI).
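Following 48 hours of exposure in 96-well plates, responses at five concentrations were used to interpolate endpoints linearly. GI50: concentration for 50% inhibition of growth. TGI: total growth inhibition.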

Key:
Assay in all cases: NCI anticancer screen, dose series, 48 h
SK-MEL-28 melanoma = tested on: SK-MEL-28 melanoma
NCI-H460 lung = tested on: NCI-H460 lung
UO-31 renal = tested on: UO-31 renal
OVCAR-3 ovarian = tested on: OVCAR-3 ovarian
MCF7 breast = tested on: MCF7 breast
NCI/ADR-RES ovarian = tested on: NCI/ADR-RES ovarian
SK-OV-3 ovarian = tested on: SK-OV-3 ovarian
OVCAR-5 ovarian = tested on: OVCAR-5 ovarian
U251 CNS = tested on: U251 CNS
NCI-H522 lung = tested on: NCI-H522 lung
HCT-116 colon = tested on: HCT-116 colon
M14 melanoma = tested on: M14 melanoma
HOP-62 NSCLC = tested on: HOP-62 NSCLC
786-0 renal = tested on: 786-0 renal
CCRF-CEM leukemia = tested on: CCRF-CEM leukemia
K-562 leukemia = tested on: K-562 leukemia
HL-60(TB) leukemia = tested on: HL-60(TB) leukemia
BT-549 breast = tested on: BT-549 breast
MDA-MB-468 breast = tested on: MDA-MB-468 breast
SF-539 CNS = tested on: SF-539 CNS
NCI-H23 lung = tested on: NCI-H23 lung
CAKI-1 renal = tested on: CAKI-1 renal
HCC-2998 colon = tested on: HCC-2998 colon
SK-MEL-2 melanoma = tested on: SK-MEL-2 melanoma
SR leukemia = tested on: SR leukemia
HS 578T breast = tested on: HS 578T breast
SNB-19 CNS = tested on: SNB-19 CNS
A498 renal = tested on: A498 renal
RPMI-8226 leukemia = tested on: RPMI-8226 leukemia
DU-145 prostate = tested on: DU-145 prostate
SK-MEL-5 melanoma = tested on: SK-MEL-5 melanoma
MALME-3M melanoma = tested on: MALME-3M melanoma
T-47D breast = tested on: T-47D breast
HT29 colon = tested on: HT29 colon
KM12 colon = tested on: KM12 colon
MDA-MB-435 = tested on: MDA-MB-435
ACHN renal = tested on: ACHN renal
HCT-15 colon = tested on: HCT-15 colon
HOP-92 NSCLC = tested on: HOP-92 NSCLC
SW-620 colon = tested on: SW-620 colon
SNB-75 CNS = tested on: SNB-75 CNS
UACC-62 melanoma = tested on: UACC-62 melanoma
RXF 393 renal = tested on: RXF 393 renal
COLO 205 colon = tested on: COLO 205 colon
PC-3 prostate = tested on: PC-3 prostate
SF-295 CNS = tested on: SF-295 CNS
NCI-H226 lung = tested on: NCI-H226 lung
IGROV1 ovarian = tested on: IGROV1 ovarian
SF-268 CNS = tested on: SF-268 CNS
MOLT-4 leukemia = tested on: MOLT-4 leukemia
LOX IMVI melanoma = tested on: LOX IMVI melanoma
TK-10 renal = tested on: TK-10 renal

`COc1ccc2cc([C@H](C)C(=O)[Se]CCC#N)ccc2c1` was tested, and the GI50 (SK-MEL-28 melanoma) was 2.02 µM, the TGI (SK-MEL-28 melanoma) was 4.8 µM and the GI50 (NCI-H460 lung) was 2.72 µM. It also gave a TGI (NCI-H460 lung) of 12.1 µM, a GI50 (UO-31 renal) of 1.44 µM and a TGI (UO-31 renal) of 2.78 µM. It also gave a GI50 (OVCAR-3 ovarian) of 2.39 µM, a TGI (OVCAR-3 ovarian) of 5.78 µM and a GI50 (MCF7 breast) of 2.22 µM. For the same compound, the TGI (MCF7 breast) was 10 µM, the GI50 (NCI/ADR-RES ovarian) was 2 µM and the TGI (NCI/ADR-RES ovarian) was 5.21 µM. It also gave a GI50 (SK-OV-3 ovarian) of 4.49 µM, a TGI (SK-OV-3 ovarian) of 7.42 µM and a GI50 (OVCAR-5 ovarian) of 2.52 µM. The TGI (OVCAR-5 ovarian) was 6.29 µM, the GI50 (U251 CNS) was 1.7 µM and the TGI (U251 CNS) was 3.26 µM. It also gave a GI50 (NCI-H522 lung) of 1.48 µM, a TGI (NCI-H522 lung) of 2.92 µM and a GI50 (HCT-116 colon) of 1.79 µM. The TGI (HCT-116 colon) was 3.37 µM, the GI50 (M14 melanoma) was 1.48 µM and the TGI (M14 melanoma) was 3.44 µM. The GI50 (HOP-62 NSCLC) was 2.16 µM, the TGI (HOP-62 NSCLC) was 3.94 µM and the GI50 (786-0 renal) was 2.12 µM. It also gave a TGI (786-0 renal) of 3.72 µM, a GI50 (CCRF-CEM leukemia) of 3.06 µM and a TGI (CCRF-CEM leukemia) of 56.8 µM. It also gave a GI50 (K-562 leukemia) of 3.78 µM, a TGI (K-562 leukemia) of 23.6 µM and a GI50 (HL-60(TB) leukemia) of 1.38 µM. The TGI (HL-60(TB) leukemia) was 4.24 µM, the GI50 (BT-549 breast) was 1.61 µM and the TGI (BT-549 breast) was 3.12 µM. For the same compound, the GI50 (MDA-MB-468 breast) was 1.96 µM, the TGI (MDA-MB-468 breast) was 4.41 µM and the GI50 (SF-539 CNS) was 1.95 µM. The TGI (SF-539 CNS) was 3.75 µM, the GI50 (NCI-H23 lung) was 2.71 µM and the TGI (NCI-H23 lung) was 7.95 µM. The GI50 (CAKI-1 renal) was 1.88 µM, the TGI (CAKI-1 renal) was 3.32 µM and the GI50 (HCC-2998 colon) was 7.06 µM. For the same compound, the TGI (HCC-2998 colon) was 22.6 µM, the GI50 (SK-MEL-2 melanoma) was 1.9 µM and the TGI (SK-MEL-2 melanoma) was 4.39 µM. The GI50 (SR leukemia) was 2.13 µM, the TGI (SR leukemia) was 12.2 µM and the GI50 (HS 578T breast) was 2.07 µM. It also gave a TGI (HS 578T breast) of 7.29 µM, a GI50 (SNB-19 CNS) of 1.79 µM and a TGI (SNB-19 CNS) of 3.47 µM. It also gave a GI50 (A498 renal) of 1.78 µM, a TGI (A498 renal) of 3.27 µM and a GI50 (RPMI-8226 leukemia) of 2.86 µM. The TGI (RPMI-8226 leukemia) was 9.32 µM, the GI50 (DU-145 prostate) was 2.66 µM and the TGI (DU-145 prostate) was 8.51 µM. For the same compound, the GI50 (SK-MEL-5 melanoma) was 2.02 µM, the TGI (SK-MEL-5 melanoma) was 4.07 µM and the GI50 (MALME-3M melanoma) was 1.64 µM. The TGI (MALME-3M melanoma) was 3.39 µM, the GI50 (T-47D breast) was 5.43 µM and the TGI (T-47D breast) was 28.2 µM. The GI50 (HT29 colon) was 2.02 µM, the TGI (HT29 colon) was 4.82 µM and the GI50 (KM12 colon) was 5.63 µM. The TGI (KM12 colon) was 50.9 µM, the GI50 (MDA-MB-435) was 1.79 µM and the TGI (MDA-MB-435) was 3.73 µM. The GI50 (ACHN renal) was 2.42 µM, the TGI (ACHN renal) was 5.42 µM and the GI50 (HCT-15 colon) was 2 µM. It also gave a TGI (HCT-15 colon) of 4.53 µM, a GI50 (HOP-92 NSCLC) of 1.76 µM and a TGI (HOP-92 NSCLC) of 3.48 µM. For the same compound, the GI50 (SW-620 colon) was 2.91 µM, the TGI (SW-620 colon) was 7.97 µM and the GI50 (SNB-75 CNS) was 1.78 µM. For the same compound, the TGI (SNB-75 CNS) was 3.59 µM, the GI50 (UACC-62 melanoma) was 2.52 µM and the TGI (UACC-62 melanoma) was 7.52 µM. For the same compound, the GI50 (RXF 393 renal) was 1.67 µM, the TGI (RXF 393 renal) was 3.22 µM and the GI50 (COLO 205 colon) was 5.81 µM. For the same compound, the TGI (COLO 205 colon) was 23.1 µM, the GI50 (PC-3 prostate) was 2.7 µM and the TGI (PC-3 prostate) was 8.53 µM. It also gave a GI50 (SF-295 CNS) of 1.81 µM, a TGI (SF-295 CNS) of 3.55 µM and a GI50 (NCI-H226 lung) of 1.56 µM. It also gave a TGI (NCI-H226 lung) of 3.63 µM, a GI50 (IGROV1 ovarian) of 2.23 µM and a TGI (IGROV1 ovarian) of 4.98 µM. The GI50 (SF-268 CNS) was 2.44 µM, the TGI (SF-268 CNS) was 5.11 µM and the GI50 (MOLT-4 leukemia) was 2.62 µM. For the same compound, the TGI (MOLT-4 leukemia) was 13 µM, the GI50 (LOX IMVI melanoma) was 1.89 µM and the TGI (LOX IMVI melanoma) was 4.97 µM. The GI50 (TK-10 renal) was 1.63 µM and the TGI (TK-10 renal) was 3.09 µM.
